The source of these data is patent US10596223B2, “JNK inhibitor molecules for treatment of various diseases” (Xigen Inflammation Ltd., priority 2011, dated 2020).

One series has as its target hJNK2 (Homo sapiens, UniProt P45984). In words: hJNK2 | IC50. From the text:
Table printed on a drawing sheet, Fig. 2 Head of the field: hJNK2 | IC50 The patent's description of the figure: FIG. 2: Table illustrating the inhibitory efficacy of several JNK inhibitors (SEQ ID NOs: 193, 2, 3, 5, 6, and 7) according to the present invention. Given are the IC50 values in the nM range, the respective standard error of the mean and the number of experiments performed (n). First copying reader's note: The sheet prints no unit for IC50 and SEM; decimal commas are used and lower-case residue letters are as printed. Where the first naming reader finds the target: head: hJNK2

For a further series, the target named is hJNK3 (Homo sapiens, UniProt P53779). Nature of the series: hJNK3 | IC50. From the text:
Table printed on a drawing sheet, Fig. 2 Head of the field: hJNK3 | IC50 The patent's description of the figure: FIG. 2: Table illustrating the inhibitory efficacy of several JNK inhibitors (SEQ ID NOs: 193, 2, 3, 5, 6, and 7) according to the present invention. Given are the IC50 values in the nM range, the respective standard error of the mean and the number of experiments performed (n). First copying reader's note: The sheet prints no unit for IC50 and SEM; decimal commas are used and lower-case residue letters are as printed. Where the first naming reader finds the target: head: hJNK3

The target in another series is hJNK1 (Homo sapiens, UniProt P45983). In words: hJNK1 | IC50. From the text:
Table printed on a drawing sheet, Fig. 2 Head of the field: hJNK1 | IC50 The patent's description of the figure: FIG. 2: Table illustrating the inhibitory efficacy of several JNK inhibitors (SEQ ID NOs: 193, 2, 3, 5, 6, and 7) according to the present invention. Given are the IC50 values in the nM range, the respective standard error of the mean and the number of experiments performed (n). First copying reader's note: The sheet prints no unit for IC50 and SEM; decimal commas are used and lower-case residue letters are as printed. Where the first naming reader finds the target: head: hJNK1

The test system of series [1] is endotoxins-induced uveitis albino rat model. Nature of the series: Endotoxins induced uveitis (EIU), single intravenous injection, clinical scoring 24 hours after LPS. Further details: key to clinical score of ocular inflammation, mean score (mean±SEM) / clinical score of ocular inflammation, median: ocular inflammation score per eye, 0 = none to 4 = intense (+1 fibrin). The format is in vivo. Particulars: 20 μg/eye sub-conjunctival, 24 hours after LPS. As to the method: FIG. 28 Clinical evaluation of administration of different amounts of the JNK inhibitor according to SEQ ID NO: 172 in albino rats after intravenous administration (endotoxins induced uveitis model). Form left to right: Vehicle, 0.015 mg/kg (i.v.) of SEQ ID NO: 172; 0.18 mg/kg (i.v.) of SEQ ID NO: 172; 1.8 mg/kg (i.v.) of SEQ ID NO: 172, 2 mg/kg (i.v.) of SEQ ID NO: 197 and 20 μg dexamethasone (administered directly by subconjunctival injection to the eye). Indicated is the clinical score (mean and the SEM).
The anti-inflammatory potency of the JNK inhibitor of SEQ ID NO: 172 was tested in albino rats following intravenous administration (EIU/LPS model). The aim of this study was to determine the effects of single intravenous injections of SEQ ID NO: 172 (0.015, 0.18, and 1.80 mg/kg) on the inflammatory response in an endotoxins-induced uveitis albino rat model and to compare these affects to those obtained with prior art JNK inhibitor of SEQ ID NO: 197 (2 mg/kg). As a further control served phosphate sodic dexamethasone.
Sixty (60) male Lewis rats were randomly divided into six (6) groups of ten (10) animals each. EIU was induced by footpad injection of lipopolysaccharide (LPS, 1 mg/kg). NaCl (0.9%), SEQ ID NO: 197 at 2 mg/kg and SEQ ID NO: 172 at three concentrations (1.80 mg/kg, 0.18 mg/kg and 0.015 mg/kg) were administered by intravenous injection. Phosphate sodic dexamethasone ([…]) was administered by sub-conjunctival injection in both eyes. 24 hours after LPS injection, inflammatory response was evaluated by clinical scoring.
The intensity of clinical ocular inflammation was scored on a scale from 0 to 4 for each eye: • Grade 0 no inflammation • Grade 1 slight iris and conjunctival vasodilation • Grade 2 moderate iris and conjunctival vasodilation with flare • Grade 3 intense iris and conjunctival vasodilation with flare • Grade 4 intense inflammatory reaction • (+1) fibrin formation and seclusion of pupils

Series [2] is described as follows: Stability (half-life) in human serum, intact peptide by UPLC-MS. The class given is in vitro ADME. Conditions: human serum (50% in FIG. 5; 10 and 50% in PBS), 0.1 mM peptide. As to the method: FIG. 5: Stability of JNK inhibitors with SEQ ID NOs: 172, 196 and 197 in 50% human serum. The JNK inhibitor with SEQ ID NO: 196 was totally degraded into amino acids residues within 6 hours (A). The JNK inhibitor with SEQ ID NO: 172 was completely degraded only after 14 days (B). The JNK inhibitor with SEQ ID NO: 197 was stable at least up to 30 days (B).
The JNK inhibitors with the sequence of SEQ ID NOs: 196, 197, and 172 (0.1 mM final concentration) were digested in human serum (10 and 50% in PBS 1×). The experiment was performed as described by Tugyi et al. (Proc Natl Acad Sci USA, 2005, 413-418). The remaining intact peptide was quantified by UPLC-MS. Stability was assessed for SEQ ID NOs: 196, 197, and 172 identically but in two separate assays. While the JNK inhibitor with SEQ ID NO: 196 was totally degraded into amino acids residues within 6 hours, the JNK inhibitor with SEQ ID NO: 172 was completely degraded only after 14 days. The JNK inhibitor with SEQ ID NO: 197 was still stable after 30 days.

The next series concerns Hela cells. In words: Internalization of transporter constructs, 24 hours, fluorescence of cell extracts (FIG. 6). The format is cell-based. How it is done: The transporter sequences analyzed correspond to SEQ ID NOs: 52-94 plus SEQ ID NOs: 45, 47, 46, 43 and 99 (FIG. 6a) and SEQ ID NOs: 100-147 (FIG. 6b). […] Hela cells were incubated 24 hours in 96 well plate with […] of the respective transporters. The cells were then washed twice with an acidic buffer (0.2M Glycin, 0.15M NaCl, pH 3.0) and twice with PBS. Cells were broken by the addition of RIPA lysis buffer. The relative amount of internalized peptide was then determined by reading the fluorescence intensity (Fusion Alpha plate reader; PerkinElmer) of each extract followed by background subtraction.
Hela cells were incubated 24 hours in 96 well plate with […] of the r3-L-TAT-derived transporters. The cells were then washed twice with an acidic buffer (0.2M Glycin, 0.15M NaCl, pH 3.0) and twice with PBS. Cells were broken by the addition of RIPA lysis buffer. The relative amount of internalized peptide was then determined by reading the fluorescence intensity (Fusion Alpha plate reader; PerkinElmer) of each extract followed by background subtraction

Square brackets hold non-standard residues; d marks the D form. Ends that are not written are not given here. Peptide text beside a SMILES is read from it.

Sequence of hJNK1 (P45983 whole entry, looked up): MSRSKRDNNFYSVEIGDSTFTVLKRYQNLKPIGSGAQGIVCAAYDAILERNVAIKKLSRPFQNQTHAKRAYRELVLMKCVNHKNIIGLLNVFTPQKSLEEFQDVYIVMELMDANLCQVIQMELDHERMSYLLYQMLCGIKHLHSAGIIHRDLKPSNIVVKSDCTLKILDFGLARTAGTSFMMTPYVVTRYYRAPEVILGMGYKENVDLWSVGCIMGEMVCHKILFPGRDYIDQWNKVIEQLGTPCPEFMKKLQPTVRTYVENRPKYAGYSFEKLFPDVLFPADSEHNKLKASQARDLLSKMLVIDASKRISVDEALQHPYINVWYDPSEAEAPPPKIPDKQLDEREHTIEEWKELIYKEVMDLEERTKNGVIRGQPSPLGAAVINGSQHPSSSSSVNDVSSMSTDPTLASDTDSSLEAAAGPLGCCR
Sequence of hJNK3 (P53779 whole entry, looked up): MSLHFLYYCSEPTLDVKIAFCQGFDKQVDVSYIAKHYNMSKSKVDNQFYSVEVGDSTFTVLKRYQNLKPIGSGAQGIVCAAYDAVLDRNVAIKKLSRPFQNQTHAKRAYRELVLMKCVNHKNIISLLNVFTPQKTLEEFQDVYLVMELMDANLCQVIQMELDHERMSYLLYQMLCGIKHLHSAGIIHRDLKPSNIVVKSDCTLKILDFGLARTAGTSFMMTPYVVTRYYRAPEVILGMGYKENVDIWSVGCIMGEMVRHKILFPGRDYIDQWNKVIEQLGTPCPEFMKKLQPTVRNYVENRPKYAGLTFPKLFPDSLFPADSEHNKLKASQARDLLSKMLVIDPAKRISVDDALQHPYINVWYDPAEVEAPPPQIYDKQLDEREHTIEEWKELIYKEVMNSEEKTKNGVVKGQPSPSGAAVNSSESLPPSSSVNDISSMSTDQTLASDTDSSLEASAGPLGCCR
Sequence of hJNK2 (P45984 whole entry, looked up): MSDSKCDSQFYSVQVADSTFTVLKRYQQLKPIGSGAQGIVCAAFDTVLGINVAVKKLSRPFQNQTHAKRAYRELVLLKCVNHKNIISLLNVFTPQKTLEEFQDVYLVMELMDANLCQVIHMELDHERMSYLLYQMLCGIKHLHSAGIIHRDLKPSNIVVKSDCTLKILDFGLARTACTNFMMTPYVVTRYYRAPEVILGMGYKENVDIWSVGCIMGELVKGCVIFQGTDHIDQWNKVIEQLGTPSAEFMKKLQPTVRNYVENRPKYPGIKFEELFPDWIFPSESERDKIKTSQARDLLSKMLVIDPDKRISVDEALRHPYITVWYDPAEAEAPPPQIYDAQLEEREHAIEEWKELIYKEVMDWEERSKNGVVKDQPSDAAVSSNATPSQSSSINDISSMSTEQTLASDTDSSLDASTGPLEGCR

As usually defined, the IC50 is the concentration needed to halve the response being measured. For the compound `CC(C)C[C@H](NC(=O)[C@H](CC(N)=O)NC(=O)[C@H](CC(C)C)NC(=O)[C@@H](NC(=O)[C@@H](NC(=O)[C@@H]1CCCN1C(=O)[C@H](CCCNC(=N)N)NC(=O)[C@H](CCCCN)NC(=O)[C@@H]1CCCN1C(=O)[C@H](N)CCCNC(=N)N)[C@@H](C)O)[C@@H](C)O)C(=O)N[C@@H](Cc1ccccc1)C(N)=O` [SEQ ID NO: 2] (H-[dR]PKRPTTLNLF-NH2), the IC50 against hJNK2 came out at 0.424 µM; against hJNK3, 0.103 µM.
On to `CC(C)C[C@H](NC(=O)[C@H](CC(N)=O)NC(=O)[C@H](CC(C)C)NC(=O)[C@@H](NC(=O)[C@@H](NC(=O)[C@@H]1CCCN1C(=O)[C@H](CCCNC(=N)N)NC(=O)[C@@H](CCCCN)NC(=O)[C@@H]1CCCN1C(=O)[C@@H](N)CCCNC(=N)N)[C@@H](C)O)[C@@H](C)O)C(=O)N[C@@H](Cc1ccccc1)C(N)=O` [SEQ ID NO: 3] (H-RP[dK]RPTTLNLF-NH2), for which the IC50 against hJNK2 is 1.21 µM; on hJNK1, 0.312 µM; at hJNK3, 0.359 µM.
For `CC(C)C[C@H](NC(=O)[C@@H](NC(=O)[C@@H](NC(=O)[C@@H]1CCCN1C(=O)[C@H](CCCNC(=N)N)NC(=O)[C@H](CCCCN)NC(=O)[C@@H]1CCCN1C(=O)[C@@H](N)CCCNC(=N)N)[C@@H](C)O)[C@@H](C)O)C(=O)N[C@H](CC(N)=O)C(=O)N[C@@H](CC(C)C)C(=O)N[C@@H](Cc1ccccc1)C(N)=O` [SEQ ID NO: 5] (H-RPKRPTTL[dN]LF-NH2), the half-inhibitory concentration (IC50) against hJNK1 stood at 0.348 µM; against hJNK3, 0.387 µM.
As to `CC(C)C[C@H](NC(=O)[C@@H](NC(=O)[C@@H](NC(=O)[C@@H]1CCCN1C(=O)[C@H](CCCNC(=N)N)NC(=O)[C@H](CCCCN)NC(=O)[C@@H]1CCCN1C(=O)[C@@H](N)CCCNC(=N)N)[C@@H](C)O)[C@@H](C)O)C(=O)N[C@H](CCCNC(=N)N)C(=O)N[C@@H](CC(C)C)C(=O)N[C@@H](Cc1ccccc1)C(N)=O` [SEQ ID NO: 6] (H-RPKRPTTL[dR]LF-NH2), the IC50 on hJNK2 amounted to 0.359 µM; on hJNK1 it was 0.0905 µM; at hJNK3 it was 0.12 µM.
Turning to `CC(C)C[C@H](NC(=O)[C@H](CC(N)=O)NC(=O)[C@H](CC(C)C)NC(=O)[C@@H](NC(=O)[C@@H](NC(=O)[C@@H]1CCCN1C(=O)[C@H](CCCNC(=N)N)NC(=O)[C@H](CCCCN)NC(=O)[C@@H]1CCCN1C(=O)[C@@H](N)CCCNC(=N)N)[C@@H](C)O)[C@@H](C)O)C(=O)N[C@H](Cc1ccccc1)C(N)=O` [SEQ ID NO: 7] (H-RPKRPTTLNL[dF]-NH2), the half-inhibitory concentration (IC50) was determined as 0.278 µM against hJNK2 and 0.089 µM at hJNK3.
On to `C[C@@H]1C[C@H]2[C@@H]3CCC4=CC(=O)C=C[C@]4(C)[C@@]3(F)[C@@H](O)C[C@]2(C)[C@@]1(O)C(=O)CO` [dexamethasone, reference compound], for which, in series [1], the “clinical score of ocular inflammation, mean score (mean±SEM)” value amounted to 0.8±0.2 and the “clinical score of ocular inflammation, median” value was 0.5.
In the case of “GRKKRRQRRRPPRPKRPTTLNLFPQVPRSQD [SEQ ID NO: 196, reference compound]”, the “totally degraded into amino acids residues within” value in series [2] is ≤ 6 h.
Regarding H-RPKRPTTLNLF-NH2 [SEQ ID NO: 193], the half-inhibitory concentration (IC50) was 0.184 µM against hJNK2, 0.0395 µM against hJNK1 and 0.0677 µM on hJNK3.
For “rYKRrQRRr ([dR]YKR[dR]QRR[dR]) [SEQ ID NO: 142]”, the “transporter activity (Y in position 2)” value in the series with Hela cells was “highest transporter activity”.
